Calls of active or inactive are those of the source. No cut-off for these calls is given here.

In data set [1] the test system is MDA-MB-231. Kind of data set: Antiinvasive activity against human MDA-MB-231 cells measured after 48 hrs by transwell invasion assay. In kind it is functional, cell-based. Conditions: MDA-MB-231, 48 h.
Data set [2] has as its target T1, P2X purinoceptor 4 (Homo sapiens) (UniProt Q99571).
T1 sequence (whole entry): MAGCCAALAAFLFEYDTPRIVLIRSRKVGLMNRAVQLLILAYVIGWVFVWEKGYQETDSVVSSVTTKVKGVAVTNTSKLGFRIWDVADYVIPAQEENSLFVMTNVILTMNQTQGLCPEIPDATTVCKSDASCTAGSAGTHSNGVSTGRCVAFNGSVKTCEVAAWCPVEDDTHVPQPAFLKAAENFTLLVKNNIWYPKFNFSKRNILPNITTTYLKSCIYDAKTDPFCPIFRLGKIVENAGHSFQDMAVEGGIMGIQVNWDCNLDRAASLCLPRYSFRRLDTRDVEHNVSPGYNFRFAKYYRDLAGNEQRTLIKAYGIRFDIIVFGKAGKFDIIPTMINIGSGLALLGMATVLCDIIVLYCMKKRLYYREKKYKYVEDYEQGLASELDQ
Kind of data set: Antagonist activity at human P2X4 receptor expressed in human 1321N1 cells assessed as inhibition of ATP-induced calcium influx at 1 uM preincubated for 30 mins prior to ATP-stimulation by calcium influx assay. Type of data set: cell-based.

In data set [3] the target is T2, P2X purinoceptor 7 (Homo sapiens, UniProt Q99572).
T2 sequence (Q99572 whole entry): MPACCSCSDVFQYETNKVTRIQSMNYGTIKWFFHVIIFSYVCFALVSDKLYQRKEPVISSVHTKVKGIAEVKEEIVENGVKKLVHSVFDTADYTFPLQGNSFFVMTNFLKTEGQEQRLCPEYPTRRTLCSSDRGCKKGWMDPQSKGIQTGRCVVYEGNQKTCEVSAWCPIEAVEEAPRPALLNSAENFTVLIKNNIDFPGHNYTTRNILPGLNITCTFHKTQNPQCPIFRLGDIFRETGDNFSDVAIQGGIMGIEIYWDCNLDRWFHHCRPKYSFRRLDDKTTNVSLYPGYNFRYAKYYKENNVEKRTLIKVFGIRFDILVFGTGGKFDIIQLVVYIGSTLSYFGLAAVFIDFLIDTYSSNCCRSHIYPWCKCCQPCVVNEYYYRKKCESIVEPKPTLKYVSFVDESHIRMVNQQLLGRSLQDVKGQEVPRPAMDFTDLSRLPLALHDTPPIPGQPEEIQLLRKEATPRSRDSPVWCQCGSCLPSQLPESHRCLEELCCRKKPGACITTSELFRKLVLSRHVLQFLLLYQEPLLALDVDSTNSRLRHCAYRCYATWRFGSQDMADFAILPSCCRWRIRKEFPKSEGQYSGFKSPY
Kind of data set: Antagonist activity at human P2X7 receptor in LPS/IFN-gamma-differentiated human THP-1 cells assessed as suppression of BzATP-stimulated IL-1beta release per-incubated for 30 mins before BzATP addition and measured after 30 mins by ELISA. Type of data set: cell-based.

In data set [4] the target is T2, P2X purinoceptor 7. Kind of data set: Antagonist activity at human P2X7 receptor expressed in HEK293 cells assessed as inhibition of BzATP-induced EtBr uptake measured after 2 hrs by fluorescence analysis. Type of data set: cell-based.
Data set [5] is described as follows: Toxicity in zebrafish assessed as induction of teratogenic developmental toxicity at 10 uM. Details: species or system Danio rerio. The note with it: in vivo.
Data set [6] deals with MDA-MB-231. Kind of data set: Antimigratory activity against human MDA-MB-231 cells xenografted in zebrafish assessed as inhibition of cell dissemination and invasion at 10 uM measured after 4 days by fluorescence microscopic analysis relative to control. Type of data set: functional, cell-based.
Data set [7] addresses T3, P2X purinoceptor 1 (Homo sapiens) (UniProt P51575).
T3 sequence (whole entry): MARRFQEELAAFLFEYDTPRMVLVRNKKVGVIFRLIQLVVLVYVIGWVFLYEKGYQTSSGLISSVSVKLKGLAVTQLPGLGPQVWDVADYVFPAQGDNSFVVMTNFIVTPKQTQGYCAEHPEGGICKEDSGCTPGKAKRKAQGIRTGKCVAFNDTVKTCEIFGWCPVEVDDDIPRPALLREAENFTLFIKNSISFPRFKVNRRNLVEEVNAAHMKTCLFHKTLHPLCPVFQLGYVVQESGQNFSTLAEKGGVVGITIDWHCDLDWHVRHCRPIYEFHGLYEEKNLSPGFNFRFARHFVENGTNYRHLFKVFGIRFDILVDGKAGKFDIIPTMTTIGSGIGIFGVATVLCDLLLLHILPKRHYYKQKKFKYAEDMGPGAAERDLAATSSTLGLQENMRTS
Kind of data set: Antagonist activity at human P2X1 receptor expressed in human 1321N1 cells assessed as inhibition of ATP-induced calcium influx at 1 uM preincubated for 30 mins prior to ATP-stimulation by calcium influx assay. In kind it is cell-based.

Data set [8] is filed under the species Homo sapiens. Kind of data set: Selectivity ratio, ratio of IC50 for human P2X3 receptor expressed in human 1321N1 cells to human P2X7 receptor expressed in HEK293 cells. In kind it is cell-based.
For data set [9], the target named is T4, P2X purinoceptor 2 (Homo sapiens) (UniProt Q9UBL9).
T4 sequence (whole entry): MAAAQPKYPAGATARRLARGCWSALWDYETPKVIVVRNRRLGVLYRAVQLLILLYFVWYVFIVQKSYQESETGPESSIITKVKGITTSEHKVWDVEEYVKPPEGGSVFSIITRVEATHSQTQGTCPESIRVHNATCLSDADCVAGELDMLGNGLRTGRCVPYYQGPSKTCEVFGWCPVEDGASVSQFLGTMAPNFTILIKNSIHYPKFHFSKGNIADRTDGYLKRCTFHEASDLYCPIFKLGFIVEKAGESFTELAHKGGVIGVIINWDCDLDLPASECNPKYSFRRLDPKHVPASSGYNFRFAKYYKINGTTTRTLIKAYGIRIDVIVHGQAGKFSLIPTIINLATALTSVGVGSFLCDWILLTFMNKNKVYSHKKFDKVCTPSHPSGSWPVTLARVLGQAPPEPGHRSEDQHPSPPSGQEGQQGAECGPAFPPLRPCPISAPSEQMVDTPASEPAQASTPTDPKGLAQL
The experiment in a line: Antagonist activity at human P2X2 receptor expressed in human 1321N1 cells assessed as inhibition of ATP-induced calcium influx at 1 uM preincubated for 30 mins prior to ATP-stimulation by calcium influx assay. Type of data set: cell-based.

Data set [10] relates to MDA-MB-231. The experiment in a line: Cytotoxicity against human MDA-MB-231 cells assessed as reduction in cell viability at 10 uM measured after 48 hrs by WST-1 cell viability assay. In kind it is cell-based. Conditions: mda-mb-231, 48 h.
The target in data set [11] is T5, P2X purinoceptor 3 (Homo sapiens, UniProt P56373).
T5 sequence (P56373 whole entry): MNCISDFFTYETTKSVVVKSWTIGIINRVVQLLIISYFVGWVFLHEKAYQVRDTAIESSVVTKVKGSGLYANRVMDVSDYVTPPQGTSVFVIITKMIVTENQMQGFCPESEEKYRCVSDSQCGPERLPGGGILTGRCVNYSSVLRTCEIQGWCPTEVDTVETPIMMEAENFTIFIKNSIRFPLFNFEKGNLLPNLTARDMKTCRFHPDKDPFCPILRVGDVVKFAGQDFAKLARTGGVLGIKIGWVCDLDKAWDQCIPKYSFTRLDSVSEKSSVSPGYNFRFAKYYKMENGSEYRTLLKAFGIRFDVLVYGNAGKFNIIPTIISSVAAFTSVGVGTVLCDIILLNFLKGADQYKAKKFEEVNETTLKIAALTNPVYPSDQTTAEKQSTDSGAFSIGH
The experiment in a line: Antagonist activity at human P2X3 receptor expressed in human 1321N1 cells assessed as inhibition of ATP-induced calcium influx preincubated for 30 mins prior to ATP-stimulation by calcium influx assay. Type of data set: cell-based.

Take `CN(C)c1ccc(C(=O)N2CCC(n3cncc3-c3ccc(OS(=O)(=O)c4cccc5cnccc45)cc3)CC2)cc1`: the 50% inhibitory concentration (IC50) amounted to 2.68 µM in [1], 0.00219 µM in data set [3], 0.00011 µM in [4] and 0.8 µM in [11]. Moreover, the inhibition in data set [2] was 15%; in data set [7] it was 26%; in data set [9], 11%. In addition, the Activity result is given as “Non-Toxic” in data set [5] and 71% in [10]. The inhibition entry in [6] is “Active”. The Ratio IC50 in [8] was 1000 to 7000.
